Measured values as given in PubChem BioAssay (NCI).
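Protocol summary: plate cells (96-well), add compound at 5 concentrations, incubate 48 h, interpolate endpoints linearly. At the TGI there is no net growth.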

What was measured:
Assay in all cases: NCI-60 cell line screen, 48 h
[1] = tested on: 786-0 renal
[2] = tested on: A498 renal
[3] = tested on: A549 NSCLC
[4] = tested on: ACHN renal
[5] = tested on: BT-549 breast
[6] = tested on: CAKI-1 renal
[7] = tested on: CCRF-CEM leukemia
[8] = tested on: COLO 205 colon
[9] = tested on: DU-145 prostate
[10] = tested on: EKVX NSCLC
[11] = tested on: HCC-2998 colon
[12] = tested on: HCT-116 colon
[13] = tested on: HCT-15 colon
[14] = tested on: HOP-62 NSCLC
[15] = tested on: HOP-92 NSCLC
[16] = tested on: HS 578T breast
[17] = tested on: HT29 colon
[18] = tested on: IGROV1 ovarian
[19] = tested on: KM12 colon
[20] = tested on: LOX IMVI melanoma
[21] = tested on: M14 melanoma
[22] = tested on: MCF7 breast
[23] = tested on: MDA-MB-231 breast
[24] = tested on: MDA-MB-435
[25] = tested on: MDA-N
[26] = tested on: MOLT-4 leukemia
[27] = tested on: NCI-H226 lung
[28] = tested on: NCI-H23 lung
[29] = tested on: NCI-H460 lung
[30] = tested on: NCI-H522 lung
[31] = tested on: NCI/ADR-RES ovarian
[32] = tested on: OVCAR-3 ovarian
[33] = tested on: OVCAR-5 ovarian
[34] = tested on: OVCAR-8 ovarian
[35] = tested on: PC-3 prostate
[36] = tested on: RPMI-8226 leukemia
[37] = tested on: RXF 393 renal
[38] = tested on: SF-268 CNS
[39] = tested on: SF-295 CNS
[40] = tested on: SF-539 CNS
[41] = tested on: SK-MEL-2 melanoma
[42] = tested on: SK-MEL-28 melanoma
[43] = tested on: SK-MEL-5 melanoma
[44] = tested on: SK-OV-3 ovarian
[45] = tested on: SN12C renal
[46] = tested on: SNB-19 CNS
[47] = tested on: SNB-75 CNS
[48] = tested on: SR leukemia
[49] = tested on: SW-620 colon
[50] = tested on: T-47D breast
[51] = tested on: TK-10 renal
[52] = tested on: U251 CNS
[53] = tested on: UACC-257 melanoma
[54] = tested on: UACC-62 melanoma
[55] = tested on: UO-31 renal

Question: `O=C(CCc1cc(O)cc(O)c1)NCCc1ccc(O)c(O)c1` was tested. Which TGI [1] did it give?
Answer: Its TGI is over 100 µM.

Question: And the TGI [2]?
Answer: Its TGI is over 100 µM.

Question: And the TGI [3]?
Answer: Its TGI is over 100 µM.

Question: And the TGI [4]?
Answer: The TGI was over 100 µM.

Question: And the TGI [5]?
Answer: The TGI was over 100 µM.

Question: What about the TGI [6] of the same molecule?
Answer: The TGI was over 100 µM.

Question: What about the TGI [7] of the same molecule?
Answer: The TGI was 56.1 µM.

Question: What about the TGI [8] of the same molecule?
Answer: Its TGI is over 100 µM.

Question: What about the TGI [9] of the same molecule?
Answer: Its TGI is over 100 µM.

Question: And the TGI [10]?
Answer: Its TGI is over 100 µM.

Question: What about the TGI [11] of the same molecule?
Answer: The TGI was over 100 µM.

Question: What about the TGI [12] of the same molecule?
Answer: Its TGI is over 100 µM.

Question: What about the TGI [13] of the same molecule?
Answer: Its TGI is over 100 µM.

Question: What about the TGI [14] of the same molecule?
Answer: Its TGI is over 100 µM.

Question: What about the TGI [15] of the same molecule?
Answer: Its TGI is over 100 µM.

Question: And the TGI [16]?
Answer: The TGI was over 100 µM.

Question: What about the TGI [17] of the same molecule?
Answer: Its TGI is over 100 µM.

Question: And the TGI [18]?
Answer: The TGI was over 100 µM.

Question: And the TGI [19]?
Answer: The TGI was over 100 µM.

Question: And the TGI [20]?
Answer: The TGI was over 100 µM.

Question: What about the TGI [21] of the same molecule?
Answer: Its TGI is over 100 µM.

Question: What about the TGI [22] of the same molecule?
Answer: The TGI was over 100 µM.

Question: And the TGI [23]?
Answer: Its TGI is over 100 µM.

Question: And the TGI [24]?
Answer: The TGI was 52.8 µM.

Question: What about the TGI [25] of the same molecule?
Answer: The TGI was over 100 µM.

Question: What about the TGI [26] of the same molecule?
Answer: Its TGI is over 100 µM.

Question: And the TGI [27]?
Answer: The TGI was over 100 µM.

Question: What about the TGI [28] of the same molecule?
Answer: The TGI was over 100 µM.

Question: And the TGI [29]?
Answer: The TGI was over 100 µM.

Question: What about the TGI [30] of the same molecule?
Answer: The TGI was over 100 µM.

Question: And the TGI [31]?
Answer: The TGI was over 100 µM.

Question: What about the TGI [32] of the same molecule?
Answer: Its TGI is over 100 µM.

Question: What about the TGI [33] of the same molecule?
Answer: The TGI was over 100 µM.

Question: And the TGI [34]?
Answer: Its TGI is over 100 µM.

Question: What about the TGI [35] of the same molecule?
Answer: Its TGI is over 100 µM.

Question: And the TGI [36]?
Answer: Its TGI is over 100 µM.

Question: What about the TGI [37] of the same molecule?
Answer: The TGI was over 100 µM.

Question: What about the TGI [38] of the same molecule?
Answer: The TGI was over 100 µM.

Question: And the TGI [39]?
Answer: The TGI was over 100 µM.

Question: What about the TGI [40] of the same molecule?
Answer: The TGI was over 100 µM.

Question: And the TGI [41]?
Answer: The TGI was over 100 µM.

Question: What about the TGI [42] of the same molecule?
Answer: Its TGI is over 100 µM.

Question: And the TGI [43]?
Answer: The TGI was over 100 µM.

Question: And the TGI [44]?
Answer: The TGI was over 100 µM.

Question: What about the TGI [45] of the same molecule?
Answer: The TGI was over 100 µM.

Question: And the TGI [46]?
Answer: The TGI was over 100 µM.

Question: What about the TGI [47] of the same molecule?
Answer: Its TGI is over 100 µM.

Question: What about the TGI [48] of the same molecule?
Answer: The TGI was over 100 µM.

Question: What about the TGI [49] of the same molecule?
Answer: Its TGI is over 100 µM.

Question: And the TGI [50]?
Answer: Its TGI is over 100 µM.

Question: And the TGI [51]?
Answer: The TGI was over 100 µM.

Question: And the TGI [52]?
Answer: The TGI was over 100 µM.

Question: And the TGI [53]?
Answer: Its TGI is over 100 µM.

Question: And the TGI [54]?
Answer: The TGI was over 100 µM.

Question: What about the TGI [55] of the same molecule?
Answer: The TGI was over 100 µM.
